In article PMC7822874, “Chemoprotective antimalarials identified through quantitative high-throughput screening of Plasmodium blood and liver stage parasites” (Scientific Reports, 2021):
Values joined by “and” are separate entries in the source; they are usually repeats but may differ in a detail not shown here. Equal values may be shown once.

Columns and labels:
[1] = test system: T1, Plasmodium falciparum Dd2-attB (parental line), asexual blood stages; assay: microbe, parasite or virus in culture; set-up: replicate k of 3 (each line is one of three independent assays; the three lines of one compound and parasite line follow each other); conditions: n = 1; for Individual replicates / Log AC50 (M): 72 h; for AC50: Plasmodium falciparum, DD2, 72 h, read-out: Individual replicates / Log AC50 (converted)
T1 construct: Dd2-attB, the isogenic parental line
Description: (§1) The overexpression of the fumarate-dependent yeast DHODH confers resistance to compounds that inhibit the parasite mETC, or the parasite DHODH enzyme that depends on ubiquinone provided by the parasite mETC. Assays were performed in three independent assays on a subset of compounds, and differences between the Dd2-attB parental line and the ScDHODH transgenic line were analyzed using two-sided Student’s t-tests.

[2] = test system: T2, Plasmodium falciparum Dd2-attB-ScDHODH (transgenic line expressing yeast DHODH), asexual blood stages; assay: organism not typed; set-up: replicate k of 3 (each line is one of three independent assays; the three lines of one compound and parasite line follow each other)
T2 construct: Dd2-attB-ScDHODH, the transgenic line that expresses yeast DHODH
Description: as §1

[3] = 72 h; n = 1; read-out: Individual replicates / Log AC50 (converted)

| SMILES | Individual replicates / Log AC50 (M) [1] | Individual replicates / Log AC50 (M) ([2]; 72 h, n = 1) | AC50 [1] | Individual replicates / Log AC50 (M) ([2]; 72 h; n = 1) | AC50 [2, 3] |
| --- | --- | --- | --- | --- | --- |
| CC(=O)Nc1cccc(-c2csc(Nc3cc(C)ccn3)n2)c1 [MLS000550799-02] | -4.7486 Log AC50 (M) and -5.0986 Log AC50 (M) and -4.9486 Log AC50 (M) | -4.7486 Log AC50 (M) |  |  |  |
| O=C(CCc1ccccc1)NC(c1cccs1)c1cc(Cl)c2cccnc2c1O (stereo not drawn) [MLS000703748-02] | -5.4486 Log AC50 (M) |  | 3.99 µM | -5.3986 Log AC50 (M) | 3.99 µM |
| CN1CCN(Cc2cc(COCc3ccccc3)c3cccnc3c2O)CC1 [NCGC00052276-02] | -5.1986 Log AC50 (M) and -5.0486 Log AC50 (M) | -5.2986 Log AC50 (M) (2×) and -4.9486 Log AC50 (M) | 5.03 µM |  |  |
| CCc1nc2c(sc3nc4c(cc32)COC(C)(C)C4)c(=O)n1Cc1ccco1 [NCGC00053301-03] |  |  | 17.8 µM |  | 10 µM |
| Cc1ccc(CN2C(=O)C(O)(CC(=O)c3ccc(C)cc3)c3ccccc32)cc1 (stereo not drawn) [NCGC00099997-03] |  |  | 17.8 µM |  |  |
| O=C(CC[S+](=O)([O-])c1nc(-c2cccs2)cc(C(F)(F)F)n1)Nc1ccc(OC(F)(F)F)cc1 [NCGC00103927-03] | -4.7986 Log AC50 (M) | -4.8486 Log AC50 (M) | 17.8 µM |  | 15.9 µM |
| CC(C)c1ccc(Nc2c(-c3ccccn3)nc3ccccn23)cc1 [NCGC00104490-03] | -5.1986 Log AC50 (M) and -5.1486 Log AC50 (M) | -5.0986 Log AC50 (M) | 5.64 µM |  | 5.64 µM |
| Cc1cccc2nc(-c3ccccn3)c(Nc3ccc(F)cc3)n12 [NCGC00106061-03] | -5.2986 Log AC50 (M) | -5.2986 Log AC50 (M) and -5.0986 Log AC50 (M) | 5.03 µM |  | 5.64 µM |
| Cc1ccc2nc(-c3ccccn3)c(Nc3ccccc3C)n2c1 [NCGC00106087-03] | -5.3486 Log AC50 (M) and -5.2486 Log AC50 (M) | -5.1986 Log AC50 (M) and -5.1486 Log AC50 (M) | 4.48 µM |  | 5.64 µM |
| Cc1ccc(NC2=C(c3ccc(C(F)(F)F)cc3)C(=O)c3ccccc32)cc1F [NCGC00107266-02] | -6.3986 Log AC50 (M) and -6.3486 Log AC50 (M) (2×) | -5.2986 Log AC50 (M) and -5.1986 Log AC50 (M) and -5.5486 Log AC50 (M) |  |  |  |
| Cc1nnc2c3ccccc3nc(N3CCN(c4ccccc4)CC3)n12 [NCGC00107295-01] | -4.7986 Log AC50 (M) |  | 15.9 µM |  | 14.2 µM |
| Cc1nnc2c3ccccc3nc(N3CCN(c4ccccc4)CC3)n12 [NCGC00107295-02] | -4.8986 Log AC50 (M) and -4.9986 Log AC50 (M) |  |  |  |  |
| Cc1ccc(C)c(NC2=C(c3ccc(C(F)(F)F)cc3)C(=O)c3ccccc32)c1 [NCGC00107302-02] | -5.8486 Log AC50 (M) and -5.6486 Log AC50 (M) (2×) | -5.0486 Log AC50 (M) and -4.9486 Log AC50 (M) and -4.9986 Log AC50 (M) |  |  |  |
| O=C1C(c2ccc(C(F)(F)F)cc2)=C(Nc2ccc(Cl)cc2)c2ccccc21 [NCGC00107304-02] | -6.0486 Log AC50 (M) and -5.9486 Log AC50 (M) (2×) | -5.1986 Log AC50 (M) and -5.3486 Log AC50 (M) and -5.6486 Log AC50 (M) |  |  |  |
| Cc1cccc(N2CCN(C(=O)Cn3ncc4c3-c3ccccc3OC4)CC2)c1C [NCGC00112661-02] |  |  | 14.2 µM |  |  |
| O=C(c1ccccc1F)N1c2nc(-c3ccco3)nn2C2(CCCCC2)[C@@H]2CCCC[C@@H]21 [NCGC00118206-02] | -4.7986 Log AC50 (M) |  | 15.9 µM |  |  |
| COc1ccc(NC(=O)CN2C(=O)CCn3nc(-c4cccn4C)cc32)cc1Cl [NCGC00132050-02] | -4.9986 Log AC50 (M) |  | 8.94 µM |  |  |
| CN1CCN(c2cnc3c(O)ccc(C(=O)O)c3c2)CC1 [NCGC00241033-01] | -4.8986 Log AC50 (M) and -4.9486 Log AC50 (M) |  | 17.8 µM |  |  |
